Among the data in PubChem BioAssay (NCI) are TGI and GI50 values, retold here.

Among the test systems are SF-539 CNS; OVCAR-4 ovarian; HCC-2998 colon; A549 NSCLC; MALME-3M melanoma; MOLT-4 leukemia; RPMI-8226 leukemia; ACHN renal; DU-145 prostate; MDA-MB-435.
Test in all cases: NCI tumour cell line growth inhibition, 48 h

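Cells were grown in 96-well plates and exposed to each compound for 48 hours at five concentrations; endpoints were interpolated linearly between bracketing concentrations, or set to the highest concentration if not reached. GI50 = concentration required for 50% inhibition of growth. TGI: concentration producing complete growth inhibition.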

On to `CCOC(=O)CN(CC)C(=O)NC12CC3CC(CC(C3)C1)C2`, for which the TGI in the experiment with SF-539 CNS was 659 µM; in the experiment on OVCAR-4 ovarian, 568 µM; in the experiment with HCC-2998 colon, 700 µM; with A549 NSCLC, greater than 750 µM; with MALME-3M melanoma, 378 µM; in the experiment with MOLT-4 leukemia, 436 µM. In the experiment on RPMI-8226 leukemia, this molecule gave a TGI of 454 µM.
As to `CCOC(=O)c1c(NS(=O)(=O)c2ccccc2)sc2c1CCCC2`, the TGI in the experiment with ACHN renal, in the experiment with SF-539 CNS, in the experiment with DU-145 prostate, with A549 NSCLC, in the experiment on MOLT-4 leukemia and in the experiment with RPMI-8226 leukemia was greater than 100 µM each time.
For `O=C(OC[C@H]1C[C@H]2C(=O)OCCC[C@H]2O1)c1ccccc1`, the TGI in the experiment on ACHN renal, in the experiment on OVCAR-4 ovarian, with DU-145 prostate, in the experiment on MDA-MB-435, with A549 NSCLC and in the experiment on MOLT-4 leukemia was greater than 100 µM each time. This molecule also gave a TGI in the experiment with RPMI-8226 leukemia greater than 100 µM.
For `COc1ccc2nc(-c3ccc(N)cc3)sc2c1`, the TGI in the experiment on ACHN renal, with SF-539 CNS, in the experiment with OVCAR-4 ovarian, in the experiment with MDA-MB-435, with HCC-2998 colon and with A549 NSCLC was greater than 100 µM in each case. The TGI with MALME-3M melanoma and in the experiment with MOLT-4 leukemia was greater than 100 µM each time.
Take `O=C1CC2(CCN(Cc3ccccc3)CC2)C(=O)N1N1CCCCC1`: the TGI in the experiment with ACHN renal, in the experiment with SF-539 CNS, with DU-145 prostate, with MDA-MB-435, with A549 NSCLC and with MALME-3M melanoma was greater than 100 µM each time. The TGI in the experiment on MOLT-4 leukemia and with RPMI-8226 leukemia was greater than 100 µM in each case.
`O=C1C=C2SC3C[C@@]24CC1(O)[N+]1=c2c4c(c(O)c4c2=C(C=N4)CC1)N3`: the TGI in the experiment on SF-539 CNS is 2.85 µM; in the experiment with OVCAR-4 ovarian it was 2.53 µM; with A549 NSCLC it was 4.11 µM; in the experiment on MOLT-4 leukemia, 0.859 µM; with RPMI-8226 leukemia, 1.62 µM.
With `Cc1ccc(-c2ccc3c(c2)Sc2ccccc2O3)n1C`, the TGI was greater than 100 µM with ACHN renal; greater than 100 µM in the experiment with OVCAR-4 ovarian; greater than 41.5 µM with DU-145 prostate; 0.625 µM in the experiment on HCC-2998 colon; greater than 100 µM in the experiment with A549 NSCLC; 50 µM with MALME-3M melanoma. The TGI is greater than 67.8 µM with MOLT-4 leukemia and 0.706 µM with RPMI-8226 leukemia.
As for `CCOc1c2c(cc3c1C(=O)c1c(OC)cccc1C3=O)C=C(OC)CC2`, the TGI with ACHN renal, in the experiment with SF-539 CNS, in the experiment with OVCAR-4 ovarian, in the experiment on DU-145 prostate, in the experiment with MDA-MB-435 and in the experiment on A549 NSCLC was greater than 25 µM each time. The TGI with MALME-3M melanoma, in the experiment with MOLT-4 leukemia and in the experiment with RPMI-8226 leukemia was greater than 25 µM each time.
`C=CC[PH+](c1ccccc1)c1ccccc1.C=CC[PH+](c1ccccc1)c1ccccc1.[Pt+2].[S-]c1nc2ccccc2[nH]1.[S-]c1nc2ccccc2[nH]1`: the GI50 in the experiment on ACHN renal was 3890 nM; in the experiment on OVCAR-4 ovarian, 2.56 µM; in the experiment on DU-145 prostate it was 3.33 µM; in the experiment on MOLT-4 leukemia, 2870 nM; in the experiment with RPMI-8226 leukemia it was 401 nM. In addition, the TGI in the experiment with ACHN renal was greater than 100 µM; in the experiment on OVCAR-4 ovarian, greater than 100 µM; in the experiment with DU-145 prostate it was 42.8 µM; in the experiment with MOLT-4 leukemia, greater than 100 µM; with RPMI-8226 leukemia, 3.22 µM.
For the molecule `CN1N=C(c2ccncc2)OC1c1ccc(C(F)(F)F)cc1` (centres undefined), the TGI in the experiment on ACHN renal, in the experiment with SF-539 CNS, with OVCAR-4 ovarian, in the experiment on DU-145 prostate, in the experiment with MDA-MB-435 and with HCC-2998 colon was greater than 100 µM each time. In addition, the TGI in the experiment with A549 NSCLC, with MOLT-4 leukemia and with RPMI-8226 leukemia was greater than 100 µM each time.
Take `C=CCSC1=N/C(=C\c2ccc(C)cc2)C(=O)N1CC=C`: the TGI in the experiment on ACHN renal was greater than 100 µM; in the experiment on SF-539 CNS it was greater than 100 µM; in the experiment with OVCAR-4 ovarian, greater than 100 µM; in the experiment with DU-145 prostate, greater than 100 µM; in the experiment on MDA-MB-435, 98.8 µM; with HCC-2998 colon it was 74.3 µM. Moreover, the TGI came out at 65.4 µM in the experiment with A549 NSCLC and 31.9 µM in the experiment with RPMI-8226 leukemia.
As to `CC1(C)OCC(/C=C\C(O)CC2(C)OCCO2)CO1` (centres undefined), the TGI with ACHN renal, in the experiment with SF-539 CNS, with OVCAR-4 ovarian, in the experiment on DU-145 prostate, in the experiment with MDA-MB-435 and in the experiment on HCC-2998 colon was greater than 100 µM each time. Besides, the TGI with A549 NSCLC, in the experiment on MOLT-4 leukemia and in the experiment with RPMI-8226 leukemia was greater than 100 µM each time.
For the molecule `CN(C)CCCn1c(-c2ccc(Br)cc2)csc1=Nc1ccccc1`, the TGI with ACHN renal amounted to 37.7 µM; with SF-539 CNS, 34 µM; with OVCAR-4 ovarian it was 38 µM; with MDA-MB-435 it was 61.5 µM; in the experiment with HCC-2998 colon, 18.3 µM; in the experiment with A549 NSCLC, 48.9 µM. For the same molecule, the TGI with MOLT-4 leukemia amounted to 59.2 µM; in the experiment with RPMI-8226 leukemia, 44.4 µM.
Take `CCCOC(=O)CCC(NC(=O)c1ccc(Nc2nc3ccccc3nc2-c2cccs2)cc1)C(=O)OCCC` (centres undefined): the TGI in the experiment on ACHN renal was greater than 100 µM; with SF-539 CNS, greater than 100 µM; with OVCAR-4 ovarian, greater than 100 µM; in the experiment on HCC-2998 colon it was greater than 100 µM; in the experiment with A549 NSCLC, greater than 100 µM; in the experiment on MALME-3M melanoma, 88.9 µM. Moreover, the TGI in the experiment on MOLT-4 leukemia and with RPMI-8226 leukemia was greater than 100 µM throughout.
`c1c2c(cc3c1OCO3)-c1ncc3cc4c(cc3c1C2)OCO4`: the GI50 in the experiment on ACHN renal is 33.7 nM; with SF-539 CNS, 598 nM; with OVCAR-4 ovarian, 28.6 µM; in the experiment on MDA-MB-435 it was 54 µM; in the experiment with A549 NSCLC it was 702 nM; in the experiment with MOLT-4 leukemia, 14.7 nM. Further, the GI50 with RPMI-8226 leukemia was 108 nM. Besides, the TGI is 6.33 µM with ACHN renal; 5.25 µM with SF-539 CNS; greater than 100 µM in the experiment on OVCAR-4 ovarian; greater than 100 µM in the experiment on MDA-MB-435; greater than 32.4 µM with HCC-2998 colon; greater than 77 µM with A549 NSCLC. The TGI is 0.152 µM with MOLT-4 leukemia and greater than 76.9 µM in the experiment with RPMI-8226 leukemia.
Take `O=C(Cn1c(=O)oc2ccccc21)N(c1ccccc1)c1ccccc1`: the TGI in the experiment with ACHN renal, in the experiment on SF-539 CNS, in the experiment on DU-145 prostate, in the experiment with MDA-MB-435, in the experiment on MALME-3M melanoma and with MOLT-4 leukemia was greater than 100 µM each time. This molecule had a TGI in the experiment on RPMI-8226 leukemia greater than 100 µM.
In the case of `C#C[C@]1(O)CC[C@H]2[C@@H]3CCC4=C/C(=N/OC(=O)c5cccc6cc7ccccc7nc56)CC[C@@H]4[C@H]3CC[C@@]21CC`, the TGI in the experiment on ACHN renal, in the experiment on SF-539 CNS, in the experiment with OVCAR-4 ovarian, in the experiment with DU-145 prostate, with MDA-MB-435 and with HCC-2998 colon was greater than 100 µM each time. Moreover, the TGI in the experiment on A549 NSCLC, in the experiment on MOLT-4 leukemia and in the experiment with RPMI-8226 leukemia was greater than 100 µM in each case.
`CCC(C)C(NC(=O)c1cccc2c(=O)c3ccccc3[nH]c12)C(=O)O` (centres undefined): the TGI in the experiment with ACHN renal, in the experiment with OVCAR-4 ovarian, with DU-145 prostate, in the experiment on MDA-MB-435, in the experiment with A549 NSCLC and in the experiment with MALME-3M melanoma was greater than 100 µM throughout. The TGI in the experiment on MOLT-4 leukemia and in the experiment with RPMI-8226 leukemia was greater than 100 µM in each case.
As for `Cc1n[nH]c(=O)c2c3c([nH]c12)-c1ccccc1C3`, the TGI in the experiment on ACHN renal, in the experiment on SF-539 CNS, in the experiment with OVCAR-4 ovarian, in the experiment with DU-145 prostate, in the experiment with MDA-MB-435 and with A549 NSCLC was greater than 100 µM throughout. Also, the TGI in the experiment on MALME-3M melanoma, in the experiment on MOLT-4 leukemia and in the experiment with RPMI-8226 leukemia was greater than 100 µM throughout.
For the molecule `CC(=O)OC1CCC2(C)C(CCC3C2CCC2(C)C(c4ccc(=O)oc4)C(OC(C)=O)CC32O)C1` (centres undefined), the TGI in the experiment on SF-539 CNS came to 0.015 µM; in the experiment on OVCAR-4 ovarian, 0.0253 µM; in the experiment on HCC-2998 colon it was 0.153 µM; in the experiment on A549 NSCLC it was 0.0157 µM; in the experiment with MALME-3M melanoma it was 0.017 µM; with MOLT-4 leukemia, 0.0227 µM. The TGI in the experiment with RPMI-8226 leukemia was 0.0595 µM.
Consider `O=S(c1ccc(O)cc1)c1ccc(O)cc1`, for which the TGI in the experiment with SF-539 CNS, with OVCAR-4 ovarian, in the experiment with HCC-2998 colon, with A549 NSCLC, in the experiment on MALME-3M melanoma and in the experiment on MOLT-4 leukemia was greater than 100 µM each time. Also, in the experiment with RPMI-8226 leukemia, the TGI is greater than 100 µM.
Regarding `CC/C(CC(=O)CCC(=O)Nc1ccc(C)c(C)c1)=N\NC(=O)c1cc2ccccc2cc1O`, the TGI in the experiment on ACHN renal is greater than 100 µM; in the experiment with OVCAR-4 ovarian, greater than 100 µM; in the experiment on HCC-2998 colon it was 43.2 µM; in the experiment on MALME-3M melanoma it was 92.6 µM; with MOLT-4 leukemia, greater than 100 µM.
On to `Cc1cc2nc3c(N)nn(CCCN(C)C)c3nc2cc1C`, for which the TGI in the experiment on ACHN renal, with SF-539 CNS, in the experiment on OVCAR-4 ovarian, in the experiment on DU-145 prostate, in the experiment with MDA-MB-435 and in the experiment with HCC-2998 colon was greater than 100 µM each time. Also, the TGI in the experiment with A549 NSCLC and with RPMI-8226 leukemia was greater than 100 µM each time.
Take `C(/C=C(\Nc1ccccc1)c1ccc2ccccc2c1)=Nc1ccccc1`: the TGI in the experiment on ACHN renal was 11.5 µM; in the experiment on SF-539 CNS, 4.1 µM; with OVCAR-4 ovarian, 14.5 µM; with DU-145 prostate, 6.29 µM; in the experiment with MDA-MB-435 it was 1.27 µM; in the experiment with A549 NSCLC, 18.4 µM. In addition, the TGI in the experiment on MALME-3M melanoma was determined as 15 µM; in the experiment with MOLT-4 leukemia it was 2.62 µM; in the experiment on RPMI-8226 leukemia, 5.67 µM.
